The values that follow are results of earlier work, collected in patent US20090253799A1 (priority 2008, published 2009).

Structures are written as SMILES.

For the series, the target named is T1, wildtype CFTR (Homo sapiens, UniProt P13569).
T1 construct: expressed in transfected cells
Conditions: Muanprasat et al. 2004.

T1 sequence (P13569 whole entry): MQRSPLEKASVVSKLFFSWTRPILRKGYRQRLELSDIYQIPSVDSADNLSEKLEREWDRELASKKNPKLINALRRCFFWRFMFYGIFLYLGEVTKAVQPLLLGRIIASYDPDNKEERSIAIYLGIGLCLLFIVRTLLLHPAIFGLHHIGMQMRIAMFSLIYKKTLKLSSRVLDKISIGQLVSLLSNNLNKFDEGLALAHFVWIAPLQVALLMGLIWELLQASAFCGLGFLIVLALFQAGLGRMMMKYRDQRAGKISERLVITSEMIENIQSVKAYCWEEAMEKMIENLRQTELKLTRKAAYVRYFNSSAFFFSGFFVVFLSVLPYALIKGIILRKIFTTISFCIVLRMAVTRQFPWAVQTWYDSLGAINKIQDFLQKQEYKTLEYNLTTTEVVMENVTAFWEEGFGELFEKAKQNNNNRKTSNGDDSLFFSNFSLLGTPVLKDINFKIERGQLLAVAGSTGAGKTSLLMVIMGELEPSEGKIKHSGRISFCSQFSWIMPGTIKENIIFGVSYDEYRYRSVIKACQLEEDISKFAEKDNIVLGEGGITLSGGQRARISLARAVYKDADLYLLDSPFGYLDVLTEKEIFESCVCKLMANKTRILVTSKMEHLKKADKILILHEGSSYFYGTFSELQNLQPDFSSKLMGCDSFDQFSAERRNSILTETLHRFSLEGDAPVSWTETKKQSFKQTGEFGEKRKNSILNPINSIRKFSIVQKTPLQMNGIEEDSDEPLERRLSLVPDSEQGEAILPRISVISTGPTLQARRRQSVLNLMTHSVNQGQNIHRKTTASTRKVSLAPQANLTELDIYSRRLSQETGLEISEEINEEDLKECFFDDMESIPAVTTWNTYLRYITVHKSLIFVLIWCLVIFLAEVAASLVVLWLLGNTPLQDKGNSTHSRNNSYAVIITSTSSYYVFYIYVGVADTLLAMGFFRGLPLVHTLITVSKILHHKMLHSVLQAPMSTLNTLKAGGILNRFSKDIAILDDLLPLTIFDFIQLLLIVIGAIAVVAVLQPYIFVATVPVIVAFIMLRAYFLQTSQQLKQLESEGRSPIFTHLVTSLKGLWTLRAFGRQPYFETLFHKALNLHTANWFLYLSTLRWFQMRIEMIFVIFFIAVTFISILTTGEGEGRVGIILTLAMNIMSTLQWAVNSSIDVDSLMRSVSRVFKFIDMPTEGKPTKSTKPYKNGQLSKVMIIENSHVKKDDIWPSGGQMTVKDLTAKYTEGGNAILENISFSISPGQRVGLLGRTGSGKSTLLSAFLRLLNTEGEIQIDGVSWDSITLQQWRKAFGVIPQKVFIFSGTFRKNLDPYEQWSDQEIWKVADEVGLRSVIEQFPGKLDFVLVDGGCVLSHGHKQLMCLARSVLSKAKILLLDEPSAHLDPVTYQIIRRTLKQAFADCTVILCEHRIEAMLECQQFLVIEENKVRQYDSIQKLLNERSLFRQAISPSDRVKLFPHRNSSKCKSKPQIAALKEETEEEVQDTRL

In the case of `O=C(CNc1ccc2ccccc2c1)N/N=C/c1cc(Br)c(O)c(Br)c1O` [GlyH-101], the “time constants for block and unblock” value was 8 to 10 ms.
